Data reported in US20070086981A1, “Delivery peptides, their constructs with active agents and use” (priority 2003, published 2007).

System: human skin
Experiment: Clinical study with a cream for skincare against skin aging
Type: in vivo, humans
Settings: comparison of skin creams in the clinical study
Experimental: A cream base was used having the following ingredients:
The huSOD-peptide OA 05 conjugate was produced as described in example 4.
The following compositions of skin cream were prepared for use in the clinical study:
The properties were evaluated according the following criteria: “firmness of the skin”, “reduction of superficial wrinkles”, “reduction of deeper wrinkles”, “skin regeneration”, and “appearance of young skin”. The questionnaire was filled out at least 4 weeks after starting of using the skin cream.
The application of the skin cream was done in all Groups (I to V) over 6 weeks twice a day, creaming the face and the neck in the morning and in the evening without using any other skin products. No application was discontinued in any group. The observation period (counted from the first application) was minimum 4 weeks and maximum 10 weeks.
Furthermore, a total evaluation of the different applied skin creams on a score ranging from 1 (excellent) to 6 (very poor) was performed.

Substance | beneficial effect on aging parameters in the human skin
KKKQKRKK (Cargo Peptide) [OA 05] | significantly increases the beneficial effect of SOD
SOD: Super-Oxid- Dismutase (SOD), a free radical catcher; huSOD from Jena Biosciences | has a beneficial effect on different aging parameters in the human skin
